The values that follow come from the SangsterLogP compilation.

The series in a line: method code SF-AS, from DOI: 10.1021/jm00089a008, PMID: 1317921. As to conditions: pH 7.4.

For `CC(C)N(/C=N/c1ccn([C@H]2C[C@H](F)[C@@H](CO)O2)c(=O)n1)C(C)C`, the logD worked out at 1.14. In turn, `CC(C)N(/C=N/c1ccn([C@H]2CC[C@@H](CO)O2)c(=O)n1)C(C)C` gave a logD of 0.72. Regarding `O=c1nc(/N=C/N2CCOCC2)ccn1C1CC(F)C(CO)O1` (stereo not drawn), the logD is -0.68.
